Experimental data taken from ChEMBL document CHEMBL1221167, “Small-molecule inhibition of siderophore biosynthesis in Mycobacterium tuberculosis and Yersinia pestis” (Nat Chem Biol, 2005).
Activity calls are given as the source filed them. The rule behind the calls is not given here.

Columns and labels:
[1] = molecular target: T1, AMP-binding enzyme family protein (Yersinia pestis) (UniProt Q56950); test: Inhibition of His6-tagged Yersinia pestis YbtE-mediated [3H]salicyl-ypArCP-H6 formation up to 400 uM after 1.5 hrs by microplate counting
T1 sequence (whole entry): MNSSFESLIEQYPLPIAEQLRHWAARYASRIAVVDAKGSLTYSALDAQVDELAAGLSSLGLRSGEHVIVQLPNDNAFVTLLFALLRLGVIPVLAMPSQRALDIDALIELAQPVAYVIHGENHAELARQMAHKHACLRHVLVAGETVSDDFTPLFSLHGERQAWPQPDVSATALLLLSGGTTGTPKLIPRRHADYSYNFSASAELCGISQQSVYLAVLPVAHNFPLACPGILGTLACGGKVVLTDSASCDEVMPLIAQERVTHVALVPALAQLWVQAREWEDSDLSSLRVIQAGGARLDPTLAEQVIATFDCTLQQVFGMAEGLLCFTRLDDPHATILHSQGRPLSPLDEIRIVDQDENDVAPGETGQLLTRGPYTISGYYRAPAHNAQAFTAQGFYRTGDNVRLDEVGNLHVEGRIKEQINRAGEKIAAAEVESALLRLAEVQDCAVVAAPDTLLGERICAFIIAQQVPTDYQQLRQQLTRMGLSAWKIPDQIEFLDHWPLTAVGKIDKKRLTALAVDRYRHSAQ

[2] = test system: Mycobacterium tuberculosis; test: Antimicrobial activity against Mycobacterium tuberculosis H37Rv assessed as inhibition of bacterial growth in iron-deficient medium after 8 days; type: functional, organism-based; settings: 192 h
[3] = test system: Mycobacterium tuberculosis; test: Antimicrobial activity against Mycobacterium tuberculosis H37Rv assessed as inhibition of bacterial growth in iron-supplemented medium after 8 days; type: functional, organism-based; settings: 192 h
Pyochelin synthase PchD = molecular target: T2, Pyochelin synthase PchD (Pseudomonas aeruginosa, UniProt Q9HWG3); test: Inhibition of adenylation activity of Pseudomonas aeruginosa PchD after 15 mins by ATP-[32P]pyrophosphate exchange assay
T2 sequence (Q9HWG3 whole entry): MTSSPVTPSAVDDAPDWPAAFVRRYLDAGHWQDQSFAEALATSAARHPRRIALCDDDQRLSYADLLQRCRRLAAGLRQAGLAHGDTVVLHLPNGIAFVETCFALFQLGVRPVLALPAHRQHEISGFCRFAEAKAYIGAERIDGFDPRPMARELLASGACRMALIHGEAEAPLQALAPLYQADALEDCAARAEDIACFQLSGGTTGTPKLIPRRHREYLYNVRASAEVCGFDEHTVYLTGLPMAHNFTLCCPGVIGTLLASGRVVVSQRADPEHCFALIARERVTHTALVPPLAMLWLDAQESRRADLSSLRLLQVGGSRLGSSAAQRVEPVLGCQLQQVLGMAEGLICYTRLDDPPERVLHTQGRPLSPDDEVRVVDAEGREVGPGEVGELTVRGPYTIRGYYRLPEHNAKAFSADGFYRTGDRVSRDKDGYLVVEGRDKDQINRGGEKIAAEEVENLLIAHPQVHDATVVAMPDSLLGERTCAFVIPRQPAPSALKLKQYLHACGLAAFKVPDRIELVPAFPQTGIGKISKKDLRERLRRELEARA

Yersinia pestis [4] = test: Antimicrobial activity against Yersinia pestis assessed as inhibition of bacterial growth in iron-deficient medium after 22 hrs; type: functional, organism-based
Yersinia pestis [5] = test: Antimicrobial activity against Yersinia pestis assessed as inhibition of bacterial growth in iron-supplemented medium after 22 hrs; type: functional, organism-based
[6] = test system: Mycobacterium tuberculosis; test: Inhibition of siderophore production in Mycobacterium tuberculosis H37Rv at 200 uM after 12 hrs by radiometric assay; type: functional, organism-based

| Structure (SMILES) | inhibition [1] | IC50 [2] | IC50 [3] | IC50 (Pyochelin synthase PchD) | IC50 (Yersinia pestis [4]) | IC50 (Yersinia pestis [5]) | inhibition [6] |
| --- | --- | --- | --- | --- | --- | --- | --- |
| Nc1ncnc2c1ncn2[C@@H]1O[C@H](COS(N)(=O)=O)[C@@H](O)[C@H]1O | inactive | – | – | – | – | – | – |
| Nc1ncnc2c1ncn2[C@@H]1O[C@H](COS(=O)(=O)NC(=O)c2ccccc2O)[C@@H](O)[C@H]1O | – | 2.2 µM | 39.9 µM | 0.0125 µM | 51.2 µM | > 400 µM | Active |
